The source of these data is PubChem BioAssay (NCI).

Among the test systems are HCT-116 colon; CCRF-CEM leukemia; HOP-92 NSCLC; SN12C renal; A549 NSCLC; HCT-15 colon; HOP-62 NSCLC; KM12 colon; NCI/ADR-RES ovarian; MDA-N; PC-3 prostate.
What all share (experiment): inhibition of tumour cell growth, NCI panel, 48 h

The structures appear in SMILES notation.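 Dose response: 5 concentrations. Exposure: 48 h. Format: 96-well plates. Endpoint: linear interpolation; highest concentration if not reached. TGI: concentration producing complete growth inhibition.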 Where only a bound is given, the exact number is not on record here.

As for `O=C(O)C(CO)NC(=O)n1c2ccccc2c2ccccc21` (centres undefined), the TGI with HCT-116 colon, in the assay with CCRF-CEM leukemia, in the assay with HOP-92 NSCLC, with SN12C renal, in the assay with A549 NSCLC and in the assay with HCT-15 colon was > 100 µM throughout. In addition, the TGI in the assay with HOP-62 NSCLC and in the assay with KM12 colon was > 100 µM each time.
`Clc1ccc(OCc2nnc(CCCCCCCCc3nnc(COc4ccc(Cl)cc4)n3Nc3ccccc3)n2Nc2ccccc2)cc1`: the TGI is 81.5 µM in the assay on NCI/ADR-RES ovarian; 24.2 µM in the assay on HCT-116 colon; 77 µM in the assay on HOP-92 NSCLC; 37.1 µM with MDA-N; 99 µM in the assay with SN12C renal; > 83.3 µM in the assay on A549 NSCLC. Moreover, the TGI with PC-3 prostate is > 100 µM; in the assay with HCT-15 colon, > 100 µM; in the assay with HOP-62 NSCLC it was > 100 µM; in the assay on KM12 colon, 36.9 µM.
Turning to `Cc1cc2ncc3c(=O)n(NS(=O)(=O)c4ccc(N)cc4)ccc3n2n1`, the TGI in the assay on HCT-116 colon, in the assay on CCRF-CEM leukemia, in the assay with HOP-92 NSCLC, in the assay with MDA-N, with SN12C renal and in the assay on A549 NSCLC was > 100 µM in each case. In addition, the TGI in the assay with PC-3 prostate, with HCT-15 colon, with HOP-62 NSCLC and in the assay with KM12 colon was > 100 µM each time.
For `COc1ccc(Nc2nc3c([nH]2)c(=O)n(C)c(=O)n3C)cc1`, the TGI in the assay with CCRF-CEM leukemia, with HOP-92 NSCLC, in the assay on MDA-N, in the assay on SN12C renal, in the assay with A549 NSCLC and with PC-3 prostate was > 10 µM throughout. The TGI in the assay with HCT-15 colon, with HOP-62 NSCLC and in the assay with KM12 colon was > 10 µM throughout.
Regarding `O=C(O)C(CS)N=c1c2ccccc2n(O)c2ccccc12` (centres undefined), the TGI in the assay with HCT-116 colon, in the assay with CCRF-CEM leukemia, with SN12C renal, with A549 NSCLC, in the assay on HCT-15 colon and with HOP-62 NSCLC was > 100 µM in each case. For the same compound, in the assay with KM12 colon, the TGI was > 100 µM.
Take `O=C1NC2OC(CO)C(O)C(O1)C2O` (centres undefined): the TGI with CCRF-CEM leukemia, in the assay with HOP-92 NSCLC, in the assay with SN12C renal, with HCT-15 colon, with HOP-62 NSCLC and with KM12 colon was > 100 µM each time.
For `CN(C)CCn1c(=O)c2ccc(NCCCN(C)CCCNc3ccc4c(=O)n(CCN(C)C)c(=O)n5c6ccc([N+](=O)[O-])cc6c(=O)c3c45)c3c(=O)c4cc([N+](=O)[O-])ccc4n(c1=O)c23`, the TGI in the assay on HCT-116 colon is 0.118 µM; in the assay with HOP-92 NSCLC, 0.198 µM; in the assay with MDA-N it was 0.22 µM; in the assay with SN12C renal, 0.165 µM; with A549 NSCLC, 0.308 µM; in the assay on PC-3 prostate, 0.293 µM. Moreover, the TGI in the assay on HCT-15 colon came out at 0.542 µM; with HOP-62 NSCLC, 0.842 µM; in the assay with KM12 colon it was 0.27 µM.
On to `Nc1ccc2[nH]c(-c3cccc(Cl)c3)cc(=O)c2c1`, for which the TGI was 12.4 µM in the assay with NCI/ADR-RES ovarian; > 100 µM in the assay with CCRF-CEM leukemia; 9.69 µM in the assay with HOP-92 NSCLC; > 100 µM with SN12C renal; > 100 µM in the assay with A549 NSCLC; > 100 µM in the assay on PC-3 prostate. Further, the TGI in the assay with HCT-15 colon, with HOP-62 NSCLC and in the assay with KM12 colon was > 100 µM throughout.
For the compound `COc1ccc(-c2c(C#N)c(N)nc3c2CCS(=O)(=O)c2ccccc2-3)cc1`, the TGI with NCI/ADR-RES ovarian, in the assay on HCT-116 colon, in the assay with CCRF-CEM leukemia, in the assay on HOP-92 NSCLC, in the assay on SN12C renal and in the assay with A549 NSCLC was > 100 µM throughout. Moreover, the TGI with PC-3 prostate, in the assay on HCT-15 colon and in the assay on KM12 colon was > 100 µM each time.
In the case of `C=CCOCCCCC(C(C)=O)C(=O)OC` (centres undefined), the TGI with HCT-116 colon, with CCRF-CEM leukemia, with HOP-92 NSCLC, in the assay with SN12C renal, in the assay with A549 NSCLC and with HCT-15 colon was > 100 µM each time. The TGI with KM12 colon was > 100 µM.
`O=C(Cc1ccccc1)NN1C(=O)/C(=C\c2ccc([N+](=O)[O-])cc2)SC1=Nc1ccccc1`: the TGI in the assay with NCI/ADR-RES ovarian, with HCT-116 colon, in the assay on CCRF-CEM leukemia, in the assay on HOP-92 NSCLC, with SN12C renal and with A549 NSCLC was > 100 µM each time. The TGI in the assay on HCT-15 colon, in the assay on HOP-62 NSCLC and in the assay with KM12 colon was > 100 µM in each case.
For the compound `CC(C)(C)C1CCC2(CC1)c1[nH]c3ccccc3c1C1(CCC(C(C)(C)C)CC1)c1[nH]c3ccccc3c12` (centres undefined), the TGI with HCT-116 colon, in the assay with CCRF-CEM leukemia, in the assay on HOP-92 NSCLC, in the assay with SN12C renal, with A549 NSCLC and in the assay with HCT-15 colon was > 100 µM in each case. Also, the TGI in the assay with HOP-62 NSCLC and in the assay with KM12 colon was > 100 µM throughout.
Take `CCN1CCC(O)(C(C(=O)O)c2ccccc2)CC1` (centres undefined): the TGI in the assay with NCI/ADR-RES ovarian, in the assay on CCRF-CEM leukemia, in the assay with A549 NSCLC, in the assay with PC-3 prostate, in the assay on HCT-15 colon and in the assay on HOP-62 NSCLC was > 100 µM throughout. The TGI in the assay with KM12 colon is > 100 µM.
For `COC(=O)C1CC2(c3ccccc3)C(=O)c3ccccc3N2O1` (centres undefined), the TGI in the assay with HCT-116 colon, in the assay on CCRF-CEM leukemia, in the assay with HOP-92 NSCLC, with SN12C renal, in the assay on A549 NSCLC and in the assay with HCT-15 colon was > 100 µM each time. Also, the TGI in the assay with HOP-62 NSCLC and in the assay on KM12 colon was > 100 µM each time.
For the compound `CN(C)S(=O)(=O)Nc1nnc(S(N)(=O)=O)s1`, the TGI in the assay on NCI/ADR-RES ovarian, in the assay with HCT-116 colon, in the assay on HOP-92 NSCLC, with A549 NSCLC, in the assay on PC-3 prostate and in the assay with HCT-15 colon was > 100 µM in each case. Also, the TGI in the assay on HOP-62 NSCLC and in the assay on KM12 colon was > 100 µM in each case.
